# According to patent publication US20200268864A1, “CANCER VACCINE COMPOSITIONS AND METHODS FOR USING SAME TO TREAT CANCER” (Dana-Farber Cancer Institute, Inc., priority 2017, published 2020):
# Entries after “also recorded” stand apart in the source; their conditions may differ.
# What was measured:
# [1] = tested on: PBM tumors (Trp53−/−; Brca1−/−; c-Myc); test: Orthotopic PBM tumor allograft growth and survival (bioluminescence); type: in vivo, mouse
# Protocol: All animal experiments described in this study were performed according to the animal protocols approved by the DFCI Institutional Animal Care and Use Committee. Brca1^loxP/loxP [FVB/N] mice, bearing loxP sites in introns 4 and 13 of the Brca1 gene, and Trp53^loxP/loxP[FVB/N] mice bearing loxP in introns 2 and 10 of the p53 gene, were obtained from Dr. Jos Jonkers's laboratory (Netherlands Cancer Institute, Amsterdam, The Netherlands). These mice were intercrossed through multiple generations to create a colony of homozygous Trp53^loxP/loxP/Brca1^loxP/loxP double conditional knockout mice. Ovaries were harvested from 8-week-old female Trp53^loxP/loxP/Brca1^loxP/loxP mice. The ovaries were washed twice with phosphate-buffered and incubated in DMEM/F12 (Ham's) medium containing collagenase and dispase (stem cell technologies) for 40 min at 37° C. The epithelial cells were pelleted by centrifugation at 800×g and cultured in DMEM/F12 (Life Technologies) supplemented with 4% (vol/vol) FBS, 1% penicillin/streptomycin, 10 ng/mL EGF, 5 μg/mL insulin, 5 Cpg/mL transferrin, and 5 ng/mL sodium selenite. Ovarian surface epithelial (OSE) cells were cultured for 48 hr and then introduced with Adeno-Cre (University of Iowa) and lentiviruses expressing C-Myc gene (Addgene #36980) or control GFP. After two days of infection in vitro, OSE cells are aggregated and implanted into recipient mice. About 5×10^5 OSE cells (Trp53^−/−; Brca1^−/−; c-Myc) were injected into the right ovarian bursal cavities of 6- to 7-week-old female nude mice. In each mouse, the left ovarian bursa was injected with GFP-expressing OSE cells (Trp53^−/−; Brca1^−/−; GFP). PBM (Trp53^−/−; Brca1^−/−; c-Myc) ovarian tumors developed within three to six months after implantation of the genetically engineered OSE cells. The primary ovarian tumors were digested and orthotopically transplanted to FVB/NJ mice. The PPM GEM model (Trp53^−/−; Pten^−/−; c-Myc) was developed with OSE cells isolated from homozygous Trp53^loxP/loxP/Pten^loxP/loxP(FVB/NJ) double conditional knockout mice using the same strategy for generation of the PBM GEM model described above. For histological analysis, tumor pieces were fixed in 10% Formalin overnight and transferred to 70% ethanol. Embedding, sectioning and H&E staining was performed by scientists at the Harvard rodent histopathology core facility. The histological characteristics of high grade ovarian tumor were confirmed by two independent pathologists at Harvard Medical School.
# Single cells were obtained by digestion of primary ovarian tumors in collagenase buffer and then cultured in MOT media (DMEM/F12, 0.6% FBS, 10 ng/ml EGF, hydrocortisone 1 μg/ml, cholera toxin 1 ng/ml, 100 μg/ml penicillin-streptomycin, 5 μM Y27632). […] The endpoints were determined by tumor burden and ascites. […]
# [2] = tested on: Brca1-proficient and Brca1-deficient tumor cells; test: Measurement of IC50 value in tumor cells (MTS, 72 h); type: cell-based; conditions: three pairs of models; for gemcitabine except PPM and PBM cells
# Protocol: Tumor cells were seeded in 96-well plates at a density of 1000-3000/well and allowed to adhere overnight. Cells were then exposed to appropriate concentrations of therapeutic agents (or vehicle control) with continuous exposure for 72 h. Growth inhibition was measured by CellTiter Aqueous MTS reagent from Promega by comparing the absorbance at 490 nm of drug-treated cells to that of untreated controls set at 100%. 1C50 values were calculated using non-linear regression model (logarithmic inhibitor vs. normalized response-variable slope) in Graphpad Prism 7.
# [3] = tested on: PP tumors (Pten−/−; Trp53−/−); test: PP tumor growth after intratumoral injection of PBM or PP cells plus olaparib; type: in vivo, mouse; conditions: 10^6 cells IT on day 1, 5, 9; olaparib 50 mg/kg/day IP from day 1
# Protocol: All animal experiments described in this study were performed according to the animal protocols approved by the DFCI Institutional Animal Care and Use Committee. Pten^−/−; Trp53^−/− (termed PP) mammary epithelial tumor cells were derived from syngeneic FVB/N genetically engineered mouse model of breast tumors driven by concurrent loss of PTEN and P53 (K14-Cre/Pten^L/L, Trp53^L/L). 10^6 PP cells in 100 μl of 40% Matrigel® Matrix (Corning) in DMEM were injected into the mammary fat pad of FVB/N1 mice. When tumors were about 100-200 mm^3 in volume, three injections of 10^6 of Trp53^−/−; Brca1^−/−; c-Myc (termed PBM) ovarian surface epithelial tumor cells or PP cells were administered intraturnorally (IT) on day 1, 5, and 9, respectively. Mice were also administered 50 mg/kg/day of olaparib (AZD2281) in 10% DMSO via intraperitoneal injection (IP) from day 1. Olaparib was prepared by diluting 100 mg/ml stocks in DMSO with 10% of 2-hydroxyl-propyl-β-cyclodextrine (Sigma) in PBS. In another cohort of PP tumor, two doses of DMXAA (Sigma, 500 μg/dose) resuspended in 7.5% of NaHCO3 or vehicle control were injected IT over a one-week period. Tumor volume was calculated using the formula: V=0.52×length×width×width.
# [4] = tested on: PBM and PPM tumor cells; test: Western blot of cGAS-STING signaling in tumor cells; type: cell-based, mouse
compound,measurement,setting,value
"O=C(c1cc(Cc2n[nH]c(=O)c3ccccc23)ccc1F)N1CCN(C(=O)C2CC2)CC1 [olaparib, Olaparib]",tumor growth / tumor progression (tumor burden by bioluminescence),"[1]; PBM tumor-bearing FVB mice, olaparib 50 mg/kg daily i.p., anti-PD-1 250 μg/mouse i.p. every 3 days",significantly delayed tumor progression; also recorded: delayed tumor growth; also recorded: effectively inhibit the growth
same,therapeutic effect of olaparib in Rag1−/− host mice,[1]; PBM tumors in Rag1−/− vs wild-type FVB mice,partially abrogated
same,survival of PBM tumor-bearing mice,"[1]; mouse, in vivo",significantly prolonged the survival; also recorded: eventually succumbed to the disease
same,"IC50 values, Brca1-deficient lines in comparison to Brca1-proficient counterparts",[2],much more sensitive
same,PP tumor growth,[3],suppressed the growth of PP tumors
same,STING signaling activity in tumor cells,[4],little STING signaling activity
